Test results published in US4425356A, “Lankacidin derivatives used in swine husbandry” (Takeda Chemical Industries, Ltd., priority 1980, dated 1984).
In brackets after ≈: the same amount, converted by molar mass. Read-outs that look alike come from different tables or passages of the source.

Assays:
Treponema hyodysenteriae [1] = experiment: in vitro antibacterial activity (MIC, agar dilution method), Test Examples 1-3; type: cell-based; conditions: 37° C., 2 days, anaerobic; for MIC: Brachyspira hyodysenteriae, 48 h, read-out: Minimum Inhibitory Concentration
Procedure: Several agents were tested for in vitro antibacterial activity against Treponema hyodysenteriae, the pathogenic bacteria causing swine dysentery, by the method of testing drug sensitivity of Treponema hyodysenteriae (Kashiwazaki et al. Abstracts of Papers presented at the 82nd Meeting of the Japanese Society of Veterinary Science, page 101, 1976).
(1) Strains: These strains belong to Treponema hyodysenteriae isolated
from the bloody mucous faeces of dysenteric pigs in Japan.
(2) Antimicrobial activity assay: Agar dilution method
(3) Inoculum size: A loopful of bacterial suspension (10^6 CFU/ml)
(4) Cultural conditions: GasPak anaerobic system (BBL), 37° C., 2
Typical agents among compound (I) were tested for in vitro antibacterial activity by the same method as in Test Example 1.
The experimental conditions are the same as in Test Example 1 (Table 1).
Agents of compound (I) were tested for in vitro antibacterial activity by the same method as in Test Example 1.

[2] = acute toxicity tests with mice; conditions: mouse, in vivo
Source text: The toxicity of compound (I) in animals is very low.

Treponema hyodysenteriae [3] = experiment: efficacy in experimental infection in mice with swine dysentery, Test Example 4; type: in vivo; conditions: 5 mg/kg/day oral, day 1 to day 4; seven days after infection
Procedure: Lankacidin A, lankacidin C, lankacidin C 8-acetate, lankacidin C 14-propionate, lankacidinol A and lankacidinol were tested for efficacy against swine dysentery in experimental infection in mice with swine dysentery.
The similar experimental infection model of swine dysentery in mice as that described, for example, by Joens et al. in Infection and Immunity, 25, 757-760 (1979), American Journal of Veterinary Research, 41, 1225-1226 (1980) and Veterinary Record, 107, 527-529 (1980) was used. Thus, a field isolate of Treponema hyodysenteriae anaerobically cultivated on the 5% defibrinated horse blood added Trypticase soy agar (BBL) plate was mashed together with the culture medium and diluted two-fold with Trypticase soy broth (BBL). Mice were inoculated intragastrically with this infecting dilution. Each test agent was suspended in 5% gum arabic solution and forcibly administered orally from day 1 to day 4 following infection. Seven days after infection, the cecum was examined for lesions, and the cecum was mashed together with the contents and subjected to Treponema hyodysenteriae counting. Excellent efficacy was produced in each of the drug-administered groups.

[4] = system: Treponema hyodysenteriae 78/A strain; experiment: therapeutic administration in pigs showing clinical signs of swine dysentery, Test Examples 8-9; type: in vivo; conditions: for Condition of feces: Table 9, individual pig
Procedure: This test was conducted under the conditions of so-called therapeutic administration. […] The method of infection was the same as in Test Example 5. […] Simultaneously with showing of the signs, the pigs were provided with a feed containing 50 ppm of lankacidin C. […] After 2 days, the viable count for the pathogen in feces was below the detection limit (10^2 CFU/g).
The condition of feces was rated at one of the following four classes:
.circle. normal; loose; diarrheal; .circleincircle. mucous and bloody
count is below the detection limit (10^2 CFU/g).
The symbol * indicates those days on which the feed containing 50 ppm of
lankacidin C was given.
Lankacidins were tested for therapeutic effects in swine dysentery under therapeutic conditions in the same manner as in Test Example 8. The effects were judged based on the condition of feces.
The condition of feces was rated at one of the following four classes;
The symbol * indicates the days on which the feed containing 50 ppm of th

[5] = growth of pigs, 5-month continuous dietary administration, Test Examples 10-11; type: in vivo, Landrace pigs; conditions: for Body weight at end / Body weight at feed exchange / Body weight gain for starter feed period / Body weight gain for whole period / Feed conversion for starter feed period / Feed conversion for whole period / Feed intake for starter feed period / Feed intake for whole period: mean per head
Procedure: Effects of compound (I) on the growth of pigs under the conditions in which swine dysentery was absent were examined. Thus, 40 one-month-old Landrace pigs (5 litters) were used in groups each consisting of 8 (4 males and 4 females). Lankacidin C was added in concentrations of 0 (control), 1, 2.5, 5 and 10 ppm to antibacterial agent-free starter feed for the period from the start of the test through the age of 3 months and to the feed for testing pigs for performance of meat production (also free of antibacterial agents) for the period from the age of 4 months to the age of 6 months (end). Thus, in each group, dietary lankacidin C was administered continuously for 5 months.
The data are each the mean value per head. Different alphabetic letters o
Fourty-eight 35-day-old Landrace pigs (6 litters) were used in 6 groups each consisting of 8 (4 males and 4 females). Lankacidin A was added in concentrations of 0 (control), 1, 2.5, 5, 10 and 20 ppm to antibacterial agent-free starter feed for the period from the start of the test through the age of 3 months and to the feed for testing pigs for performance of meat production (also free of antibacterial agents) for the period from the age of 4 months to the age of 6 months (end).

## CC(=O)OC1C=CC(C)=CCC(O)C=CC(C)=CC(NC(=O)C(C)=O)C2(C)C(=O)OC(C1)C(C)C2=O (centres unmarked) [Lankacidin A, lankacidin A]
Treponema hyodysenteriae [1]; strain 78/A
  MIC: 3.13 µg/mL (≈ 6.24 µM)
Treponema hyodysenteriae [1]; strain CD1 (CD-1)
  MIC: 6.25 µg/mL (≈ 12.5 µM)
Treponema hyodysenteriae [1]; strain DJ70P1
  MIC: 6.25 µg/mL (≈ 12.5 µM)
  Minimum Inhibitory Concentration: 3.13 µg/mL
Treponema hyodysenteriae [1]; strain MK-2
  MIC: 3.13 µg/mL (≈ 6.24 µM)
  Minimum Inhibitory Concentration: 6.25 µg/mL
[2]; ip, intraperitoneal, read-out: intraperitoneal LD50
  LD50: 8000 to 10000 mg/kg
[2]; oral, read-out: oral LD50
  LD50: > 10000 mg/kg
Treponema hyodysenteriae [3]
  Number of mice from which the pathogen was detected/number of mice tested: 1/5
  Number of mice with cecal lesions/number of mice tested: 0/5
[4]; 50 ppm in feed
  therapeutic effect in swine dysentery (in words): therapeutically effective
[4]; 50 ppm in feed days 0-6, day 7
  Condition of feces: .circle.
[4]; 50 ppm in feed days 0-6, day 8
  Condition of feces: .circle.
[4]; 50 ppm in feed days 0-6, day 9
  Condition of feces: .circle.
[4]; 50 ppm in feed days 0-6, day 10
  Condition of feces: .circle.
[4]; 50 ppm in feed days 0-6, day 11
  Condition of feces: .circle.
[4]; 50 ppm in feed days 0-6, day 12
  Condition of feces: .circle.
[4]; 50 ppm in feed days 0-6, day 13
  Condition of feces: .circle.
[4]; 50 ppm in feed days 0-6, day 14
  Condition of feces: .circle.
[4]; 50 ppm in feed days 0-6, day 15
  Condition of feces: .circle.
[4]; 50 ppm in feed days 0-6, day 16
  Condition of feces: .circle.
[4]; 50 ppm in feed days 0-6, day 17
  Condition of feces: .circle.
[4]; 50 ppm in feed days 0-6, day 18
  Condition of feces: .circle.
[4]; 50 ppm in feed days 0-6, day 19
  Condition of feces: .circle.
[4]; 50 ppm in feed days 0-6, day 20
  Condition of feces: .circle.
[4]; 50 ppm in feed days 0-6, day 21
  Condition of feces: .circle.
[4]; 50 ppm in feed, day 0 after manifestation of signs
  Condition of feces: .circleincircle.
[4]; 50 ppm in feed, day 1
  Condition of feces: .circle.
[4]; 50 ppm in feed, day 2
  Condition of feces: .circle.
[4]; 50 ppm in feed, day 3
  Condition of feces: .circle.
[4]; 50 ppm in feed, day 4
  Condition of feces: .circle.
[4]; 50 ppm in feed, day 5
  Condition of feces: .circle.
[4]; 50 ppm in feed, day 6
  Condition of feces: .circle.
[5]; 1 ppm in feed
  Body weight at end: 111.6 kg
  Body weight at feed exchange: 34.0 kg
  Body weight gain for starter feed period: 24.8 kg
  Body weight gain for whole period: 102.4 kg
  Feed conversion for starter feed period: 1.94
  Feed conversion for whole period: 2.88
  Feed intake for starter feed period: 48.1 kg
  Feed intake for whole period: 294.9 kg
[5]; 2.5 ppm in feed
  Body weight at end: 113.5 kg
  Body weight at feed exchange: 34.6 kg
  Body weight gain for starter feed period: 25.4 kg
  Body weight gain for whole period: 104.4 kg
  Feed conversion for starter feed period: 1.87
  Feed conversion for whole period: 2.83
  Feed intake for starter feed period: 47.6 kg
  Feed intake for whole period: 295.3 kg
[5]; 5 ppm in feed
  Body weight at end: 118.3 kg
  Body weight at feed exchange: 36.1 kg
  Body weight gain for starter feed period: 26.9 kg
  Body weight gain for whole period: 109.1 kg
  Feed conversion for starter feed period: 1.77
  Feed conversion for whole period: 2.79
  Feed intake for starter feed period: 47.6 kg
  Feed intake for whole period: 304.3 kg
[5]; 10 ppm in feed
  Body weight at end: 120.5 kg
  Body weight at feed exchange: 36.7 kg
  Body weight gain for starter feed period: 27.6 kg
  Body weight gain for whole period: 111.4 kg
  Feed conversion for starter feed period: 1.73
  Feed conversion for whole period: 2.74
  Feed intake for starter feed period: 47.7 kg
  Feed intake for whole period: 305.2 kg
[5]; 20 ppm in feed
  Body weight at end: 123.4 kg
  Body weight at feed exchange: 37.4 kg
  Body weight gain for starter feed period: 28.8 kg
  Body weight gain for whole period: 114.2 kg
  Feed conversion for starter feed period: 1.71
  Feed conversion for whole period: 2.72
  Feed intake for starter feed period: 48.2 kg
  Feed intake for whole period: 310.6 kg
[5]; dietary, 5 months
  growth and feed efficiency (in words): Swine growth was promoted proportionally to the increase of level of addition of lankacidin A, and the feed efficiency was improved accordingly
